Counter-ions that a name gives are not always drawn. Marks after values point to notes of the source that are not given here.
Columns and labels:
Type in all cases: physicochemical
[1] = Hygroscopic capacity: water content by Karl-Fischer titration after exposure to temperature and relative humidity; details: 25 or 40 °C, 40-90% rh, up to 15 days
Method: Coulometric Karl-Fischer titration (KFT; for determining the water content) was performed with an external drying oven (Metrohm 707 KF; operated at 140° C. with N2 purge). The samples were precisely weighed on an analytical balance (10^−5 g).
The testing was performed as described in the ICH guidelines.

[2] = Thermostability on storage at 25, 40 and 100 °C per ICH Q1A (R2), HPLC
Method: HPLC and GC analyses were performed according to standard protocols.
The testing was performed as described in the ICH guidelines (cf. inter alia ICH Guideline Q1A (R2)).

[3] = Particle size distribution by laser diffraction analysis (Mastersizer 2000); details: wet laser diffraction in acetone; listed as Sample 1, hydrochloride
Method: Laser diffraction analysis was performed in form of wet laser diffraction in acetone: 1750 rpm, 3×20 s cycle time, 60 s background time, without sonication, and 5 min stirring time using a Mastersizer 2000 Particle Size Analyzer (Malvern Instruments Ltd., Malvern, UK) according to the manufacturer's instructions.

[4] = Thermostability under stress conditions (storage at 100 °C for one month), HPLC
Method: Sample S was prepared according to the present invention, as described in Example 3 above. Sample M1 was prepared according to Example 1 of WO 2012/163508 A1, as described in Example 7 above. Finally, Sample M2 was prepared according to Example 2 of WO 2012/163508 A1, as described in Example 7 above.
The samples were exposed to a temperature of 100° C. for the time period (in weeks) indicated. The testing was performed as described in the ICH Guideline Q1A (R2) (cf. above). The amount of the degradation product (i.e. doxorubicinone) produced as well as those of various impurities (i.e., doxorubicin and four different impurities of yet unknown identity; all given in % (w/w); “n.d.”=not determined) was determined by HPCL analysis (“LT”=less than).

[5] = 25 °C, 12 months, hydrochloride
[6] = 25 °C, 24 months, hydrochloride

## COc1cccc2c1C(=O)c1c(O)c3c(c(O)c1C2=O)C[C@@](O)(C(=O)CO)C[C@@H]3O[C@H]1C[C@H](N)[C@H](O)[C@H](C)O1 [epirubicin hydrochloride monohydrate, epirubicin hydrochloride]
[1]
  Hygroscopic capacity, in words: does not exhibit any significant hygroscopic capacity
[2]; 25 °C
  Stability over a time period (overall shelf-life): ≥ 5 years
[2]; 25 °C, 0 months
  Doxorubicinone: LT 0.05 % (w/w)
[2]; 25 °C, 0 months, hydrochloride
  Assay (intact epirubicin hydrochloride): 99.2 % (w/w)
[2]; 25 °C, 1 month, hydrochloride
  Assay (intact epirubicin hydrochloride): 99.4 % (w/w)
  Doxorubicinone: LT 0.05 % (w/w)
[2]; 25 °C, 3 months, hydrochloride
  Assay (intact epirubicin hydrochloride): 99.4 % (w/w)
  Doxorubicinone: LT 0.05 % (w/w)
[2]; 25 °C, 6 months, hydrochloride
  Assay (intact epirubicin hydrochloride): 99.2 % (w/w)
  Doxorubicinone: LT 0.05 % (w/w)
[2]; [5]
  Assay (intact epirubicin hydrochloride): 99.0 % (w/w)
  Doxorubicinone: LT 0.05 % (w/w)
[2]; [6]
  Assay (intact epirubicin hydrochloride): 99.4 % (w/w)
  Doxorubicinone: LT 0.05 % (w/w)
[2]; 25 °C, 36 months
  Assay (intact epirubicin hydrochloride): 99.1 % (w/w)
  Doxorubicinone: LT 0.05 % (w/w)
[2]; 25 °C, 48 months
  Assay (intact epirubicin hydrochloride): 99.1 % (w/w)
  Doxorubicinone: LT 0.05 % (w/w)
[2]; 25 °C, 60 months
  Assay (intact epirubicin hydrochloride): 99.2 % (w/w)
  Doxorubicinone: LT 0.05 % (w/w)
[2]; 40 °C
  Stability over a time period (thermostability): ≥ 6 months
[2]; 40 °C, 0 months
  Doxorubicinone: LT 0.05 % (w/w)
[2]; 40 °C, 0 months, hydrochloride
  Assay (intact epirubicin hydrochloride): 99.2 % (w/w)
[2]; 40 °C, 1 month, hydrochloride
  Assay (intact epirubicin hydrochloride): 99.2 % (w/w)
  Doxorubicinone: LT 0.05 % (w/w)
[2]; 40 °C, 3 months, hydrochloride
  Assay (intact epirubicin hydrochloride): 99.1 % (w/w)
  Doxorubicinone: LT 0.05 % (w/w)
[2]; 40 °C, 6 months, hydrochloride
  Assay (intact epirubicin hydrochloride): 99.3 % (w/w)
  Doxorubicinone: LT 0.05* % (w/w)
[2]; 100 °C, 0 months
  Doxorubicinone: LT 0.05 % (w/w)
[2]; 100 °C, 0 months, hydrochloride
  Assay (intact epirubicin hydrochloride): 99.2 % (w/w)
[2]; 100 °C, 1 month, hydrochloride
  Assay (intact epirubicin hydrochloride): 98.3 % (w/w)
  Doxorubicinone: LT 0.5** % (w/w)
[2]; 100 °C, 1 month, listed as crystalline monohydrate of epirubicin hydrochloride, hydrochloride
  Doxorubicinone: less than 0.5 % (w/w)

## COc1cccc2c1C(=O)c1c(O)c3c(c(O)c1C2=O)C[C@@](O)(C(=O)CO)C[C@@H]3O[C@H]1C[C@H](N)[C@H](O)[C@H](C)O1 [Example M1, epirubicin hydrochloride]
[3]
  D(v/0.5), mean diameter based on the volume of the particles: 4.62 μm
[4]; 0 weeks
  Doxorubicin (NMT 1%): 0.29 % (w/w)
  Doxorubicinone (Aglycone) (NMT 1%): < 0.05 % (w/w)
  Total Impurities (NMT 2%): 0.30 % (w/w)
[4]; 1 week, hydrochloride
  Doxorubicin (NMT 1%): 0.27 % (w/w)
  Doxorubicinone (Aglycone) (NMT 1%): 0.52 % (w/w)
  Total Impurities (NMT 2%): 1.20 % (w/w)
  Unknown impurity RRT 1.2 (NMT 0.15%): 0.06 % (w/w)
  Unknown impurity RRT 1.6 (NMT 0.15%): 0.08 % (w/w)
  Unknown impurity RRT 1.7 (NMT 0.15%): 0.12 % (w/w)
[4]; 2 weeks
  Doxorubicin (NMT 1%): 0.32 % (w/w)
[4]; 2 weeks, hydrochloride
  Doxorubicinone (Aglycone) (NMT 1%): 0.57 % (w/w)
  Total Impurities (NMT 2%): 1.60 % (w/w)
  Unknown impurity RRT 1.1 (NMT 0.15%): 0.11 % (w/w)
  Unknown impurity RRT 1.2 (NMT 0.15%): 0.13 % (w/w)
  Unknown impurity RRT 1.6 (NMT 0.15%): 0.18 % (w/w)
  Unknown impurity RRT 1.7 (NMT 0.15%): 0.16 % (w/w)
[4]; 3 weeks, hydrochloride
  Doxorubicin (NMT 1%): 0.33 % (w/w)
  Doxorubicinone (Aglycone) (NMT 1%): 0.61 % (w/w)
  Total Impurities (NMT 2%): 1.80 % (w/w)
  Unknown impurity RRT 1.1 (NMT 0.15%): 0.14 % (w/w)
  Unknown impurity RRT 1.2 (NMT 0.15%): 0.14 % (w/w)
  Unknown impurity RRT 1.6 (NMT 0.15%): 0.24 % (w/w)
  Unknown impurity RRT 1.7 (NMT 0.15%): 0.20 % (w/w)
[4]; 4 weeks
  Doxorubicin (NMT 1%): 0.33 % (w/w)
[4]; 4 weeks, hydrochloride
  Doxorubicinone (Aglycone) (NMT 1%): 0.61 % (w/w)
  Total Impurities (NMT 2%): 2.3* % (w/w)
  Total amount of unknown impurities: 1.36 % (w/w)
  Unknown impurity RRT 1.1 (NMT 0.15%): 0.18 % (w/w)
  Unknown impurity RRT 1.2 (NMT 0.15%): 0.18 % (w/w)
  Unknown impurity RRT 1.6 (NMT 0.15%): 0.46 % (w/w)
  Unknown impurity RRT 1.7 (NMT 0.15%): 0.31 % (w/w)
